Biological target: HPK1 (Homo sapiens (Human), UniProt Q92918, S171E/T165E)
Assay: HPK1-FL HTRF Enzymatic Assay (HTRF)
Format: biochemical
Conditions: HPK full length T165E S171E 0.125 nM, ATP 1 mM, Biotin-SLP76 100 nM, read-out: HPK1 Ki (nM), H = HTRF
Method: Exemplary compounds of Formula (I) were tested to assess compound inhibition of HPK-1. The Ki for each exemplary compound was determined
Example B1: HPK1-FL HTRF Enzymatic Assay (“HTRF”)
HPK-FL enzyme phosphorylates Biotin-SLP-76 substrate in the presence of ATP at 1 mM and varying concentrations of test compound. Product is detected by FRET using Eu-anti-pSLP76 Ab and SA-XL665. Also see www.cisbio.com/HTRF for additional HTRF technology information.
• Echo555 compound dispenser • Agilent Bravo • Perkin Elmer Envision Final Assay Conditions:
Materials: • Assay plate: White ProxiPlate 384 F (PerkinElmer cat #6008289) • Kinase: HPK full length double mutant • Substrate: Biotin-SLP76 • ATP: 100 mM ATP • BSG: 2% BSG • DMSO: DMSO (Sigma cat #34869-100ML) • Reaction Buffer: H2O/50 mM HEPES, pH 7.5/10 mM MgCl2/2 mM TCEP/0.01% Brij-35/0.01% BSG • Detection mix:Eu-anti-pSLP76/SA-XL665 (Cisbio, #610SAXAC) Assay Procedure Ki determination:
To a 384 well Proxiplate with 80 nL compound or DMSO spotted on was added 4 μl/well kinase mix. The mixture was preincubated for 30 minutes and then 4 μl/well substrate mix was added. The solution was incubated for 60 min and then 4 μl/well detection mix was added. The solution was incubated for another 60 min. The plates were then loaded onto a Perkin Elmer Envision and the TR-FRET signal was measured at 615 and 665 nm. A ratio of […] was used to calculate the % activity at each concentration of compound.

Sequence of HPK1 (Q92918 whole entry T165E/S171E): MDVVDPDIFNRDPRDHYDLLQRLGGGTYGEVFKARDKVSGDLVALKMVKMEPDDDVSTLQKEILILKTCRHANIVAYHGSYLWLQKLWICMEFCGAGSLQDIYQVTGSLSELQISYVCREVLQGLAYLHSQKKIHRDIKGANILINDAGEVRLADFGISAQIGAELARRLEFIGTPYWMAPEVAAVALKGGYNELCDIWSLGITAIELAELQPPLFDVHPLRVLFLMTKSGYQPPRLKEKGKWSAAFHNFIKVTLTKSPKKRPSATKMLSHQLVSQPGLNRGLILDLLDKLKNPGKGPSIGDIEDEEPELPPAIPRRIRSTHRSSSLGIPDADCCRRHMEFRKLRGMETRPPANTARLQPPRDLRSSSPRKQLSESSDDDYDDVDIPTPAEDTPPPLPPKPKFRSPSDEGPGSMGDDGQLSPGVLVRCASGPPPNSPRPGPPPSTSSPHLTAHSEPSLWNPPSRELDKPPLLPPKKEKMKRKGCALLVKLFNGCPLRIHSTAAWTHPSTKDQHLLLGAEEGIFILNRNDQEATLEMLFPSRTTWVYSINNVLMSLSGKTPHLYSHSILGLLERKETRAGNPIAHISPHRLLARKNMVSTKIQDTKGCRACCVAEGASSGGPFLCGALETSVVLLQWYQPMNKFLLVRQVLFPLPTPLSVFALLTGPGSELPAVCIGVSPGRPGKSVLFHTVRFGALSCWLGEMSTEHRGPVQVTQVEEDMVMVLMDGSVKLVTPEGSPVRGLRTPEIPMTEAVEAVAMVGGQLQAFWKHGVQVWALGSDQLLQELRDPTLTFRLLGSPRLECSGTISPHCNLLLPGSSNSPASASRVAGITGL

First: Cc1c(-c2cc3cc(Nc4cc5n(n4)CC(=O)N(C)CC5)ncc3cc2F)cnc2c1NCC(C)(C)C2=O [Compound 240, 2-((7-fluoro-6-(4,7,7-trimethyl-8-oxo-5,6,7,8-tetrahydro-1,5-naphthyridin-3-yl)isoquinolin-3-yl)amino)-6-methyl-5,6-dihydro-4H-pyrazolo[1,5-d][1,4]diazepin-7(8H)-one]
Second: Cc1c(-c2cc3cc(Nc4cc5n(n4)CC(=O)N(C)CC5)ncc3cc2F)cnc2c1NCN(C)C2=O [Compound 187, 7-(7-fluoro-3-((6-methyl-7-oxo-5,6,7,8-tetrahydro-4H-pyrazolo[1,5-d][1,4]diazepin-2-yl)amino)isoquinolin-6-yl)-3,8-dimethyl-2,3-dihydropyrido[3,2-d]pyrimidin-4(1H)-one]
The Ki of the first is 18-fold lower: 0.014 nM for the first, 0.25 nM for the second.

First: Cc1c(-c2cc(F)c3cnc(Nc4cc5n(n4)CC(=O)N(C)CC54CC4)cc3c2)cnc2c1NCC[C@@H]2O (single isomer, unassigned) [Compound 237a]
Second: Cc1c(-c2cc3cc(Nc4cc5n(n4)CC(=O)N(C)CC54CC4)ncc3cc2F)cnc2c1NCC[C@H]2O (single isomer, unassigned) [Compound 205a]
The Ki of the first is 26-fold higher: 0.332 nM for the first, 0.013 nM for the second.

Going from CN[C@@H]1CCN(c2cc(C)c(-c3cc4cc(Nc5cc6n(n5)CC(=O)N(C)CC6)ncc4cc3F)cn2)C1 (single isomer, unassigned) [Compound 206a] to Cc1cc(CN)ncc1-c1cc2cc(Nc3cc4n(n3)CC(=O)N(C)CC4)ncc2cc1F [Compound 212, 2-((6-(6-(aminomethyl)-4-methylpyridin-3-yl)-7-fluoroisoquinolin-3-yl)amino)-6-methyl-5,6-dihydro-4H-pyrazolo[1,5-d][1,4]diazepin-7(8H)-one], the Ki rises from 6.7 nM to 50 nM (7.5-fold).

Going from CN[C@@H]1CCc2c(-c3cc4cc(Nc5cc6n(n5)CC(=O)N(C)CC6)ncc4cc3F)cncc21 (single isomer, unassigned) [Compound 228a] to CN[C@H]1CCc2c(-c3cc4cc(Nc5cc6n(n5)CC(=O)N(C)CC6)ncc4cc3F)cncc21 (single isomer, unassigned) [Compound 228b], the Ki rises from 8.3 nM to 446 nM (54-fold).

First: Cc1c(N)cncc1-c1cc2cc(Nc3cc4n(n3)Cc3nccn3CC4)ncc2cc1F [Compound 125, N-(6-(5-amino-4-methylpyridin-3-yl)-7-fluoroisoquinolin-3-yl)-5,6-dihydro-11H-imidazo[1,2-a]pyrazolo[1,5-d][1,4]diazepin-8-amine]
Second: Cc1c(-c2cc3cc(Nc4cc5n(n4)Cc4nccn4CC5)ncc3cc2F)cnc2c1NCC[S+]2[O-] (racemic) [Compound 189, (+/−)-7-(3-((5,6-dihydro-11H-imidazo[1,2-a]pyrazolo[1,5-d][1,4]diazepin-8-yl)amino)-7-fluoroisoquinolin-6-yl)-8-methyl-2,3-dihydro-1H-pyrido[2,3-b][1,4]thiazine 4-oxide]
The Ki of the first is 16-fold lower: 0.03 nM for the first, 0.48 nM for the second.

Going from Cc1c(N)cncc1-c1cc2cc(Nc3cc4n(n3)CC(=O)N(CCN3CCOCC3)CC4)ncc2cc1F [Compound 136, 2-((6-(5-amino-4-methylpyridin-3-yl)-7-fluoroisoquinolin-3-yl)amino)-6-(2-morpholinoethyl)-5,6-dihydro-4H-pyrazolo[1,5-d][1,4]diazepin-7(8H)-one] to COCCN1CCc2cc(Nc3cc4cc(-c5cncc(N)c5C)c(F)cc4cn3)nn2CC1=O [Compound 156, 2-((6-(5-amino-4-methylpyridin-3-yl)-7-fluoroisoquinolin-3-yl)amino)-6-(2-methoxyethyl)-5,6-dihydro-4H-pyrazolo[1,5-d][1,4]diazepin-7(8H)-one], the Ki falls from 0.028 nM to 0.017 nM (1.6-fold). The second binds more tightly here.

Going from Cc1c(-c2cc3cc(Nc4cc5n(n4)CC(=O)N(C(C)C)CC5)ncc3c(Cl)c2F)cnc2c1NCCO2 [Compound 115, 2-((8-chloro-7-fluoro-6-(8-methyl-2,3-dihydro-1H-pyrido[2,3-b][1,4]oxazin-7-yl)isoquinolin-3-yl)amino)-6-isopropyl-5,6-dihydro-4H-pyrazolo[1,5-d][1,4]diazepin-7(8H)-one] to Cc1c(-c2ccc3cnc(Nc4cc5n(n4)CC(=O)N(C)CC5)cc3c2F)cnc2c1NCCO2 [Compound 174, 2-((5-fluoro-6-(8-methyl-2,3-dihydro-1H-pyrido[2,3-b][1,4]oxazin-7-yl)isoquinolin-3-yl)amino)-6-methyl-5,6-dihydro-4H-pyrazolo[1,5-d][1,4]diazepin-7(8H)-one], the Ki falls from 0.2 nM to 0.026 nM (7.7-fold). The second binds more tightly here.

Cc1ccncc1-c1cc2cc(Nc3cc4n(n3)CC(=O)N(C(C)C)CC4)ncc2cc1F [Compound 131, 2-[[7-fluoro-6-(4-methyl-3-pyridyl)-3-isoquinolyl]amino]-6-isopropyl-5,8-dihydro-4H-pyrazolo[1,5-d][1,4]diazepin-7-one] and Cc1c(-c2cc3cc(Nc4cc5n(n4)CC(=O)N(C(C)C)CC5)ncc3cc2F)cnc2oc(=O)[nH]c12 [Compound 142, 6-(7-fluoro-3-((6-isopropyl-7-oxo-5,6,7,8-tetrahydro-4H-pyrazolo[1,5-d][1,4]diazepin-2-yl)amino)isoquinolin-6-yl)-7-methyloxazolo[5,4-b]pyridin-2(1H)-one] are within 1.5-fold of each other in Ki: 2.5 nM for the first, 1.9 nM for the second.

Going from Cc1c(-c2cc3cc(Nc4cc5n(n4)CC(=O)N(C)CC5)ncc3cc2F)ccc2c1CNC2 [Compound 221, 2-((7-fluoro-6-(4-methylisoindolin-5-yl)isoquinolin-3-yl)amino)-6-methyl-5,6-dihydro-4H-pyrazolo[1,5-d][1,4]diazepin-7(8H)-one] to Cc1c(-c2cc3cc(Nc4cc5n(n4)CC(=O)N(C)CC5)ncc3cc2F)cnc2c1NCC[C@@H]2O (single isomer, unassigned) [Compound 236a], the Ki falls from 97 nM to 0.076 nM (1300-fold). The second binds more tightly here.

Going from Cc1c(-c2cc3cc(Nc4cc5n(n4)CC(=O)N(C)CC5)ncc3cc2F)cnc2c1[C@@H](F)CCO2 (single isomer, unassigned) [Compound 235a] to Cc1c(-c2cc3cc(Nc4cc5n(n4)CC(=O)N(C)CC5)ncc3cc2F)cnc2c1C(O)CCO2 (single isomer, unassigned) [Compound 180b, 2-((7-Fluoro-6-(4-hydroxy-5-methyl-3,4-dihydro-2H-pyrano[2,3-b]pyridine-6-yl)isoquinolin-3-yl)amino)-6-methyl-5,6-dihydro-4H-pyrazolo[1,5-d][1,4]diazepin-7(8H)-one], the Ki rises from 2.1 nM to 4.82 nM (2.3-fold).

Cc1c(-c2cc3cc(Nc4cc5n(n4)CC(=O)N(C(C)C)CC5O)ncc3cc2F)cnc2c1NCCO2 (single isomer, unassigned) [Compound 141b] and Cc1c(-c2cc3cc(Nc4cc5n(n4)CC(=O)NCC5)ncc3cc2F)cnc2c1NCC(C)O2 (racemic) [Compound 184, (+/−)-2-((6-(3,8-dimethyl-2,3-dihydro-1H-pyrido[2,3-b][1,4]oxazin-7-yl)-7-fluoroisoquinolin-3-yl)amino)-5,6-dihydro-4H-pyrazolo[1,5-d][1,4]diazepin-7(8H)-one] are the same in Ki: 0.018 nM for the first, 0.018 nM for the second.

Going from Cc1c(-c2cc3cc(Nc4cc5n(n4)CC(=O)N(C)CC5)ncc3cc2F)cnc2c1NCCC2(F)F [Compound 208, 2-((6-(8,8-difluoro-4-methyl-5,6,7,8-tetrahydro-1,5-naphthyridin-3-yl)-7-fluoroisoquinolin-3-yl)amino)-6-methyl-5,6-dihydro-4H-pyrazolo[1,5-d][1,4]diazepin-7(8H)-one] to Cc1c(-c2cc(F)c3cnc(Nc4cc5n(n4)CC(=O)N(C)CC5)cc3c2)cnc2c1NCC[C@]2(C)O (single isomer, unassigned) [Compound 231b], the Ki rises from 0.02 nM to 0.38 nM (19-fold). The first binds more tightly here.

First: CO[C@H]1CCNc2c1ncc(-c1cc(F)c3cnc(Nc4cc5n(n4)CC(=O)N(C)CC5)cc3c1)c2C (single isomer, unassigned) [Compound 234a]
Second: Cc1c(-c2cc3cc(Nc4cc5n(n4)Cc4nccn4CC5)ncc3cc2F)cnc2c1NCC[C@H]2O (single isomer, unassigned) [Compound 243b]
The Ki of the first is 23-fold higher: 0.46 nM for the first, 0.02 nM for the second. The second binds more tightly here.

Compared with Cc1c(N)cncc1-c1cc2cc(Nc3cc4n(n3)CC(=O)N(C(C)C)CC4)ncc2cc1C#N [Compound 169, 6-(5-amino-4-methylpyridin-3-yl)-3-((6-isopropyl-7-oxo-5,6,7,8-tetrahydro-4H-pyrazolo[1,5-d][1,4]diazepin-2-yl)amino)isoquinoline-7-carbonitrile], Cc1c(N)cncc1-c1cc2cc(Nc3cc4n(n3)CC(=O)N(C(C)C#N)CC4)ncc2cc1F (single isomer, unassigned) [Compound 154b] is 12-fold lower in Ki: 0.39 nM for the first, 0.032 nM for the second.

Going from Cc1c(N)cncc1-c1cc2cc(Nc3cc4n(n3)CC(=O)N(C(C)CO)CC4)ncc2cc1F (single isomer, unassigned) [Compound 149b] to Cc1c(N)cncc1-c1cc2cc(Nc3cc4n(n3)Cc3nccn3CC4O)ncc2c(F)c1F (racemic) [Compound 170, (+/−)-8-((6-(5-amino-4-methylpyridin-3-yl)-7,8-difluoroisoquinolin-3-yl)amino)-5,6-dihydro-11H-imidazo[1,2-a]pyrazolo[1,5-d][1,4]diazepin-6-ol], the Ki rises from 0.019 nM to 0.035 nM (1.8-fold). The first binds more tightly here.
